ChEMBL document CHEMBL3046781, “Resistance of Helicoverpa assulta (Guenée) (Lepidoptera: Noctuidae) to fenvalerate, phoxim and methomyl in China” (2009)

How the values were obtained:
Type in all cases: functional
Helicoverpa assulta [1] = assay: Resistance factor, ratio of LD50 for sixth-instar larvae of Helicoverpa assulta YN2 to LD50 for sixth-instar larvae of Helicoverpa assulta at 1.8 to 183360 mg/l
Helicoverpa assulta [2] = assay: Insecticidal activity against sixth-instar larvae of Helicoverpa assulta HN2 at 1.8 to 183360 mg/l after 48 hr by chi-squared analysis
Helicoverpa assulta [3] = assay: Resistance factor, ratio of LD50 for sixth-instar larvae of Helicoverpa assulta AH3 to LD50 for sixth-instar larvae of Helicoverpa assulta at 1.8 to 183360 mg/l
Helicoverpa assulta [4] = assay: Resistance factor, ratio of LD50 for sixth-instar larvae of Helicoverpa assulta AH1 to LD50 for sixth-instar larvae of Helicoverpa assulta at 1.8 to 183360 mg/l
Helicoverpa assulta [5] = assay: Insecticidal activity against sixth-instar larvae of Helicoverpa assulta AH2 at 1.8 to 183360 mg/l after 48 hr by chi-squared analysis
Helicoverpa assulta [6] = assay: Resistance factor, ratio of LD50 for sixth-instar larvae of Helicoverpa assulta FJ2 to LD50 for sixth-instar larvae of Helicoverpa assulta at 1.8 to 183360 mg/l
Helicoverpa assulta [7] = assay: Resistance factor, ratio of LD50 for sixth-instar larvae of Helicoverpa assulta YN7 to LD50 for sixth-instar larvae of Helicoverpa assulta at 1.8 to 183360 mg/l
Helicoverpa assulta [8] = assay: Insecticidal activity against sixth-instar larvae of Helicoverpa assulta HB2 at 1.8 to 183360 mg/l after 48 hr by chi-squared analysis
Helicoverpa assulta [9] = assay: Resistance factor, ratio of LD50 for sixth-instar larvae of Helicoverpa assulta HN2 to LD50 for sixth-instar larvae of Helicoverpa assulta at 1.8 to 183360 mg/l
Helicoverpa assulta [10] = assay: Resistance factor, ratio of LD50 for sixth-instar larvae of Helicoverpa assulta AH2 to LD50 for sixth-instar larvae of Helicoverpa assulta at 1.8 to 183360 mg/l
Helicoverpa assulta [11] = assay: Insecticidal activity against sixth-instar larvae of Helicoverpa assulta SD1 at 1.8 to 183360 mg/l after 48 hr by chi-squared analysis
Helicoverpa assulta [12] = assay: Resistance factor, ratio of LD50 for sixth-instar larvae of Helicoverpa assulta SD2 to LD50 for sixth-instar larvae of Helicoverpa assulta at 21 to 3390 mg/l
Helicoverpa assulta [13] = assay: Insecticidal activity against sixth-instar larvae of Helicoverpa assulta HB1 at 21 to 3390 mg/l after 48 hr by chi-squared analysis
Helicoverpa assulta [14] = assay: Resistance factor, ratio of LD50 for sixth-instar larvae of Helicoverpa assulta FJ1 to LD50 for sixth-instar larvae of Helicoverpa assulta at 21 to 3390 mg/l
Helicoverpa assulta [15] = assay: Resistance factor, ratio of LD50 for sixth-instar larvae of Helicoverpa assulta HN2 to LD50 for sixth-instar larvae of Helicoverpa assulta at 21 to 3390 mg/l
Helicoverpa assulta [16] = assay: Resistance factor, ratio of LD50 for sixth-instar larvae of Helicoverpa assulta FJ2 to LD50 for sixth-instar larvae of Helicoverpa assulta at 21 to 3390 mg/l
Helicoverpa assulta [17] = assay: Resistance factor, ratio of LD50 for sixth-instar larvae of Helicoverpa assulta AH3 to LD50 for sixth-instar larvae of Helicoverpa assulta at 21 to 3390 mg/l
Helicoverpa assulta [18] = assay: Insecticidal activity against sixth-instar larvae of Helicoverpa assulta GZ2 at 21 to 3390 mg/l after 48 hr by chi-squared analysis
Helicoverpa assulta [19] = assay: Resistance factor, ratio of LD50 for sixth-instar larvae of Helicoverpa assulta HN1 to LD50 for sixth-instar larvae of Helicoverpa assulta at 21 to 3390 mg/l
Helicoverpa assulta [20] = assay: Insecticidal activity against sixth-instar larvae of Helicoverpa assulta AH2 at 21 to 3390 mg/l after 48 hr by chi-squared analysis
Helicoverpa assulta [21] = assay: Insecticidal activity against sixth-instar larvae of Helicoverpa assulta YN5 at 21 to 3390 mg/l after 48 hr by chi-squared analysis
Helicoverpa assulta [22] = assay: Resistance factor, ratio of LD50 for sixth-instar larvae of Helicoverpa assulta HB1 to LD50 for sixth-instar larvae of Helicoverpa assulta at 21 to 3390 mg/l
Helicoverpa assulta [23] = assay: Insecticidal activity against sixth-instar larvae of Helicoverpa assulta YN2 at 39 to 12630 mg/l after 48 hr by chi-squared analysis
Helicoverpa assulta [24] = assay: Insecticidal activity against sixth-instar larvae of Helicoverpa assulta AH2 at 39 to 12630 mg/l after 48 hr by chi-squared analysis
Helicoverpa assulta [25] = assay: Resistance factor, ratio of LD50 for sixth-instar larvae of Helicoverpa assulta HN1 to LD50 for sixth-instar larvae of Helicoverpa assulta at 39 to 12630 mg/l
Helicoverpa assulta [26] = assay: Insecticidal activity against sixth-instar larvae of Helicoverpa assulta GZ5 at 39 to 12630 mg/l after 48 hr by chi-squared analysis
Helicoverpa assulta [27] = assay: Resistance factor, ratio of LD50 for sixth-instar larvae of Helicoverpa assulta SD2 to LD50 for sixth-instar larvae of Helicoverpa assulta at 39 to 12630 mg/l
Helicoverpa assulta [28] = assay: Insecticidal activity against sixth-instar larvae of Helicoverpa assulta FJ1 at 39 to 12630 mg/l after 48 hr by chi-squared analysis
Helicoverpa assulta [29] = assay: Resistance factor, ratio of LD50 for sixth-instar larvae of Helicoverpa assulta FJ3 to LD50 for sixth-instar larvae of Helicoverpa assulta at 39 to 12630 mg/l
Helicoverpa assulta [30] = assay: Insecticidal activity against sixth-instar larvae of Helicoverpa assulta HB1 at 39 to 12630 mg/l after 48 hr by chi-squared analysis
Helicoverpa assulta [31] = assay: Insecticidal activity against sixth-instar larvae of Helicoverpa assulta AH1 at 39 to 12630 mg/l after 48 hr by chi-squared analysis
Helicoverpa assulta [32] = assay: Insecticidal activity against sixth-instar larvae of Helicoverpa assulta YN4 at 39 to 12630 mg/l after 48 hr by chi-squared analysis
Helicoverpa assulta [33] = assay: Resistance factor, ratio of LD50 for sixth-instar larvae of Helicoverpa assulta AH2 to LD50 for sixth-instar larvae of Helicoverpa assulta at 39 to 12630 mg/l
Helicoverpa assulta [34] = assay: Resistance factor, ratio of LD50 for sixth-instar larvae of Helicoverpa assulta HB2 to LD50 for sixth-instar larvae of Helicoverpa assulta at 39 to 12630 mg/l
Helicoverpa assulta [35] = assay: Resistance factor, ratio of LD50 for sixth-instar larvae of Helicoverpa assulta AH1 to LD50 for sixth-instar larvae of Helicoverpa assulta at 39 to 12630 mg/l

**Q.** What does the source list for `CC(C)C(C(=O)OC(C#N)c1cccc(Oc2ccccc2)c1)c1ccc(Cl)cc1` (stereo not given) [FENVALERATE]?
**A.** Ratio (Helicoverpa assulta [1]): 1313; LD90 (Helicoverpa assulta [2]): 7.63 µg/g; LD50 (Helicoverpa assulta [2]; Helicoverpa assulta, HN2, 48 h): 1.17 mg/kg; Ratio (Helicoverpa assulta [3]): 1546; Ratio (Helicoverpa assulta [4]): 2054; LD90 (Helicoverpa assulta [5]): 259 µg/g; LD50 (Helicoverpa assulta [5]; Helicoverpa assulta, AH2, 48 h): 67.3 mg/kg; Ratio (Helicoverpa assulta [6]): 12.9; Ratio (Helicoverpa assulta [7]): 1537; LD90 (Helicoverpa assulta [8]): 18 µg/g; LD50 (Helicoverpa assulta [8]; Helicoverpa assulta, HB2, 48 h): 4.62 mg/kg; Ratio (Helicoverpa assulta [9]): 7.23; Ratio (Helicoverpa assulta [10]): 415; LD90 (Helicoverpa assulta [11]): 14.8 µg/g; LD50 (Helicoverpa assulta [11]; Helicoverpa assulta, SD1, 48 h): 1.59 mg/kg

**Q.** Which results are given for `CNC(=O)ON=C(C)SC` [METHOMYL]?
**A.** Ratio (Helicoverpa assulta [12]): 6.17; LD90 (Helicoverpa assulta [13]): 27.6 µg/g; LD50 (Helicoverpa assulta [13]; Helicoverpa assulta, HB1, 48 h): 12.2 mg/kg; Ratio (Helicoverpa assulta [14]): 14.6; Ratio (Helicoverpa assulta [15]): 2.93; Ratio (Helicoverpa assulta [16]): 19.9; Ratio (Helicoverpa assulta [17]): 12.7; LD90 (Helicoverpa assulta [18]): 52.6 µg/g; LD50 (Helicoverpa assulta [18]; Helicoverpa assulta, GZ2, 48 h): 20.1 mg/kg; Ratio (Helicoverpa assulta [19]): 4.48; LD90 (Helicoverpa assulta [20]): 59.6 µg/g; LD50 (Helicoverpa assulta [20]; Helicoverpa assulta, AH2, 48 h): 22.1 mg/kg; LD90 (Helicoverpa assulta [21]): 37.7 µg/g; LD50 (Helicoverpa assulta [21]; Helicoverpa assulta, YN5, 48 h): 14.3 mg/kg; Ratio (Helicoverpa assulta [22]): 8.45

**Q.** With `CCOP(=S)(OCC)O/N=C(\C#N)c1ccccc1` [PHOXIM] as the molecule, how does the LD90 (Helicoverpa assulta [23]) read?
**A.** 107 µg/g

**Q.** What about the LD50 (Helicoverpa assulta [23]; Helicoverpa assulta, YN2, 48 h) of the same molecule?
**A.** 34.8 mg/kg

**Q.** What about the LD90 (Helicoverpa assulta [24]) of the same molecule?
**A.** 33.5 µg/g

**Q.** And the LD50 (Helicoverpa assulta [24]; Helicoverpa assulta, AH2, 48 h)?
**A.** 16.7 mg/kg

**Q.** And the Ratio (Helicoverpa assulta [25])?
**A.** 4.5

**Q.** What about the LD90 (Helicoverpa assulta [26]) of the same molecule?
**A.** 33.7 µg/g

**Q.** What about the LD50 (Helicoverpa assulta [26]; Helicoverpa assulta, GZ5, 48 h) of the same molecule?
**A.** 16.6 mg/kg

**Q.** And the Ratio (Helicoverpa assulta [27])?
**A.** 7.37

**Q.** What about the LD90 (Helicoverpa assulta [28]) of the same molecule?
**A.** 62.2 µg/g

**Q.** And the LD50 (Helicoverpa assulta [28]; Helicoverpa assulta, FJ1, 48 h)?
**A.** 16.7 mg/kg

**Q.** And the Ratio (Helicoverpa assulta [29])?
**A.** 8.15

**Q.** And the LD90 (Helicoverpa assulta [30])?
**A.** 18.8 µg/g

**Q.** What about the LD50 (Helicoverpa assulta [30]; Helicoverpa assulta, HB1, 48 h) of the same molecule?
**A.** 8.16 mg/kg

**Q.** What about the LD90 (Helicoverpa assulta [31]) of the same molecule?
**A.** 819 µg/g

**Q.** And the LD50 (Helicoverpa assulta [31]; Helicoverpa assulta, AH1, 48 h)?
**A.** 119 mg/kg

**Q.** What about the LD90 (Helicoverpa assulta [32]) of the same molecule?
**A.** 94 µg/g

**Q.** And the LD50 (Helicoverpa assulta [32]; Helicoverpa assulta, YN4, 48 h)?
**A.** 39.6 mg/kg

**Q.** And the Ratio (Helicoverpa assulta [33])?
**A.** 7.13

**Q.** And the Ratio (Helicoverpa assulta [34])?
**A.** 5.04

**Q.** And the Ratio (Helicoverpa assulta [35])?
**A.** 50.8
